Experimental findings from US8580710B2, “Pesticidal active mixtures comprising aminothiazoline compounds” (BASF SE, priority 2008, dated 2013) are described below.

“And” between values parts separate entries of the source, which are not always exact repeats. Equal values may be shown once.

The subject of series [1] is vetch aphid (Megoura viciae). In words: Test B.1: control of vetch aphid on broad bean leaf disks, contact or systemic. Format: in vivo. As to conditions: sprayed on leaf disks, 5 days. As to the method: For evaluating control of vetch aphid (Megoura viciae) through contact or systemic means the test unit consisted of 24-well-microtiter plates containing broad bean leaf disks.
The compounds or mixtures were formulated using a solution containing 75 wt % water and 25 wt % DMSO. Different concentrations of formulated compounds or mixtures were sprayed onto the leaf disks at 2.5 μl, using a custom built micro atomizer, at two replications.
(§1) For experimental mixtures in these tests identical volumes of both mixing partners at the desired concentrations respectively, were mixed together.
After application, the leaf disks were air-dried and 5-8 adult aphids placed on the leaf disks inside the microtiter plate wells. The aphids were then allowed to suck on the treated leaf disks and incubated at 23±1° C., 50±5% RH (relative humidity) for 5 days. Aphid mortality and fecundity was then visually assessed.

The subject of series [2] is boll weevil (Anthonomus grandis). In words: Test B.3: control of boll weevil, insect diet with eggs. Format: in vivo. The conditions noted are these: sprayed on insect diet, 5 days. As to the method: For evaluating control of boll weevil (Anthonomus grandis) the test unit consisted of 24-well-microtiter plates containing an insect diet and 20-30 A. grandis eggs.
The compounds or mixtures were formulated using a solution containing 75 wt % water and 25 wt % DMSO. Different concentrations of formulated compounds or mixtures were sprayed onto the insect diet at 20 μl, using a custom built micro atomizer, at two replications.
as §1
After application, microtiter plates were incubated at 23±1° C., 50±5% RH for 5 days. Egg and larval mortality was visually assessed.

Series [3] concerns green peach aphid (Myzus persicae). Briefly: Test B.2: control of green peach aphid through systemic means, artificial diet under membrane. Format: in vivo. As to conditions: 3 days.
Description: For evaluating control of green peach aphid (Myzus persicae) through systemic means the test unit consisted of 96-well-microtiter plates containing liquid artificial diet under an artificial membrane.
The compounds or mixtures were formulated using a solution containing 75 wt % water and 25 wt % DMSO. Different concentrations of formulated compounds or mixtures were pipetted into the aphid diet, using a custom built pipetter, at two replications.
as §1
After application, 5-8 adult aphids were placed on the artificial membrane inside the microtiter plate wells. The aphids were then allowed to suck on the treated aphid diet and incubated at 23±1° C., 50±5% RH for 3 days. Aphid mortality and fecundity was then visually assessed. In all cases, a synergistic control effect according to Colby's equation was observed.

Series [4] has as its system Mediterranean fruitfly (Ceratitis capitata). In words: Test B.4: control of Mediterranean fruitfly, insect diet with eggs. Format: in vivo. As to conditions: 5 days. As to the method: For evaluating control of Mediterranean fruitfly (Ceratitis capitata) the test unit consisted of 96-well-microtiter plates containing an insect diet and 50-80 C. capitata eggs.
The compounds or mixtures were formulated using a solution containing 75 wt % water and 25 wt % DMSO. Different concentrations of formulated compounds or mixtures were sprayed onto the insect diet at 5 μl, using a custom built micro atomizer, at two replications.
as §1
(§2) After application, microtiter plates were incubated at 28±1° C., 80±5% RH for 5 days. Egg and larval mortality was visually assessed.

In series [5] the test system is tobacco budworm (Heliothis virescens). Briefly: Test B.5: control of tobacco budworm, insect diet with eggs. Format: in vivo. The conditions noted are these: 5 days. As to the method:
For evaluating control of tobacco budworm (Heliothis virescens) the test unit consisted of 96-well-microtiter plates containing an insect diet and 15-25 H. virescens eggs.
The compounds or mixtures were formulated using a solution containing 75 wt % water and 25 wt % DMSO. Different concentrations of formulated compounds or mixtures were sprayed onto the insect diet at 10 μl, using a custom built micro atomizer, at two replications.
as §1, §2

[6] abbreviates: 4 ppm in aphid diet, mortality and fecundity.
Setting [7] is: 100 ppm sprayed onto insect diet.
Where [8] appears, read: 10 ppm sprayed onto insect diet.
[9] abbreviates: 0.4 ppm sprayed onto insect diet.
Where [10] appears, read: 40 ppm sprayed onto insect diet.

For orientation: melting point means the temperature of the solid-liquid transition.

In turn, `Cc1cc(C)cc(CC(NC2=NCCS2)c2cccc3cccnc23)c1` (stereo not drawn) had a melting point of 95 to 96 °C.
Still for that read-out and setting: for `Cc1cc(C)cc(CC(NC2=NCCS2)c2cccc3c2C(C)(C)C(=O)N3C)c1` (stereo not drawn) the value was 270 to 272 °C; for `Cc1cc(C)cc(CC(NC2=NCCS2)c2cccc3c2CCC3)c1` (stereo not drawn), 120 to 124 °C; for `Cc1cc(C)cc(CC(NC2=NCCS2)c2cccc3c2CCCC3)c1` (stereo not drawn), 139 to 141 °C.
In the case of `CC1(C)C(C=C(Cl)Cl)C1C(=O)OC(C#N)c1cccc(Oc2ccccc2)c1` (stereo not drawn) [alphacypermethrin], the “Average Control” value in series [1] (0.08 ppm) amounted to 0%; in series [1] (2 ppm), 50%; in series [2] (0.04 ppm), 25%.
For `Cc1cc(C)cc(CC(N=C2NCCS2)c2cccc3c2OCCO3)c1` (stereo not drawn) [compound C.I-27], the “Average Control” value in series [1] (0.16 ppm), in series [2] (0.16 ppm), in series [2] (0.8 ppm), in series [2] (20 ppm) and in series [2] (100 ppm) was 0% throughout. The “Average Control [%]” value was found to be 0% in series [3] (0.16 ppm in aphid diet); 0% in series [3] (setting [6]); 0% in series [3] (20 ppm in aphid diet); 0% in series [4] (0.16 ppm sprayed onto insect diet); 0% in series [4] (20 ppm sprayed onto insect diet); 0% in series [4] (100 ppm sprayed onto insect diet, egg and larval mortality). Further, in series [5] (setting [7]), the “Average Control [%]” value is on record as 0%.
In the case of `Cc1cc(C)cc(CC(N=C2NCCS2)c2cccc3c2OCC3)c1` (stereo not drawn) [compound C.I-47], the “Average Control” value was found to be 0% in series [1] (0.16 ppm) and 50% in series [1] (0.8 ppm). Besides, the “Average Control [%]” value in series [3] (0.8 ppm in aphid diet) is 0%; in series [3] (setting [6]), 25% and 50%; in series [5] (4 ppm sprayed onto insect diet, egg and larval mortality) it was 0%.
As to `CNC(=O)c1cc(C#N)cc(C)c1NC(=O)c1cc(Br)nn1-c1ncccc1Cl` [cyazypyr], the “Average Control” value in series [1] (0.4 ppm) and in series [2] (0.4 ppm) was 0% throughout. Besides, the “Average Control [%]” value in series [4] (setting [8]) turned out to be 50%; in series [5] (setting [9]), 0%.
As to `N#Cc1nn(-c2c(Cl)cc(C(F)(F)F)cc2Cl)c(N)c1[S+]([O-])C(F)(F)F` (stereo not drawn) [fipronil], the figures for the “Average Control [%]” value in series [3] (2 ppm in aphid diet) and in series [4] (setting [9]) were 50% and 25%, respectively.
For `N#CCNC(=O)c1cnccc1C(F)(F)F` [flonicamid], the “Average Control” value in series [1] (0.8 ppm) and in series [2] (100 ppm) was 0% in each case. Also, the “Average Control [%]” value in series [3] (setting [6]) and in series [5] (setting [7]) was 0% throughout.
For `O=[N+]([O-])NC1=NCCN1Cc1ccc(Cl)nc1` [imidacloprid], the “Average Control” value in series [1] (0.016 ppm) is 0%; in series [1] (2 ppm), 50%. Besides, the “Average Control [%]” value in series [3] (0.4 ppm in aphid diet) is listed as 50%.
With `CC(C)(C)c1ccc(CSc2cnn(C(C)(C)C)c(=O)c2Cl)cc1` [pyridaben], the “Average Control” value in series [2] (8 ppm) is reported as 50%. Moreover, the “Average Control [%]” value in series [4] (setting [10]) is 25%; in series [5] (setting [10]), 0%.
Consider `CNC(=O)c1cc(Cl)cc(C)c1NC(=O)c1cc(Br)nn1-c1ncccc1Cl` [rynaxypyr], for which, in series [1] (0.4 ppm), the “Average Control” value was 0%.
Consider `CCOC(=O)OC1=C(c2cc(C)ccc2C)C(=O)N[C@]12CC[C@@H](OC)CC2` [spirotetramat], for which, in series [1] (0.8 ppm), the “Average Control” value is listed as 0%. The “Average Control [%]” value in series [3] (setting [6]) and in series [3] (20 ppm in aphid diet) was 0% in each case.
In the case of `CN1COCN(Cc2cnc(Cl)s2)/C1=N\[N+](=O)[O-]` [thiamethoxam], the “Average Control” value in series [2] (2 ppm) is 25%. Also, the “Average Control [%]” value in series [4] (setting [8]) turned out to be 25%.
With abamectin, the figures for the “Average Control” value in series [1] (0.08 ppm) and in series [2] (0.016 ppm) were 0% and 25%, respectively. In addition, the “Average Control [%]” value in series [3] (0.016 ppm in aphid diet), in series [3] (0.08 ppm in aphid diet) and in series [4] (0.016 ppm sprayed onto insect diet) was 0% throughout.
